Reference: patent publication US20200032125A1, “COMBINED USES OF A PHOSPHOROUS COMPOUND FOR IRON SULPHIDE DISSOLUTION AND BACTERIAL CONTROL” (RHODIA OPERATIONS, priority 2016, published 2020)

Tested on: general heterotrophic bacteria (GHB)
Settings: iron sulphide present; same level of THPS as the control

## tetrakis (hydroxymethyl) phosphonium sulphate [THPS]
  bacterial kill (reduction in colony forming units per ml) versus control sample without iron sulphide: bacterial kill is still achieved
